# Test results: patent EP0728012B1, “NOVEL GnRH ANALOGUES WITH ANTITUMOUR EFFECTS AND PHARMACEUTICAL COMPOSITIONS THEREOF” (Lovas, Sandor, priority 1994, dated 1996)
# Key:
# [1] = tested on: MCF-7 xenograft; assay: In vivo antitumour effect on MCF-7 xenograft in immunosuppressed mice; parameters: species or system CBA/Ca mice; conditions: for rate of tumour growth / decrease in the tumour volume in comparison to controls: first study; for rate of tumour growth: conjugates 150 µg in every 3rd day, P-GFLG-OH daily s.c.; for decrease in the tumour volume in comparison to controls: end of 4th week, MI-1892 2 x 25 µg daily, conjugates 50 µg daily once; for tumour volume: 4th week of treatment; for Tumour volume as control (%): conjugates 1 x 50 µg; for Inhibition % (tumour growth): daily s.c.; for Volume (cm^3) of tumours / Weight (g) of tumours: after 6 week treatment, xenograft not given
# Experimental: The immunosuppression of mice was carried out by using the method of Steel et al. [Br. J. Cancer, 37, 224-230 (1978)]. Immunosuppression and xeno-transplantation
# CBA-Ca female mice of about 6 weeks old were thymectomized and then, after one week, they were irradiated with 60Co (whole body irradiation; the lethal dose is 9.5 Gray). Within 24 hours 3 to 5 x 10^5 myelocytes were injected into the animals. Beneath the skin of the immunosuppressed mice 2 x 10^7 tumour cells or, in the case of later passages, […] were implanted. […] The treatment with steroid hormone was stopped by at least one week before beginning the investigation.
# In the case of MCF-7 tumours (xenografts) the examinations were carried out with passages being in the phase of the 37th and 38th, respectively, transplantations.
# In the case of mice bearing MCF-7 xenograft, the treatment was begun in the 4th week following xeno-transplantation.
# Recent investigations have begun on 28 animals bearing MCF-7 xenograft and on 28 animals bearing MDA-MB-231 xenograft. On animals bearing MCF-7 tumour the treatment was commenced in the 5th week following xeno-transplantation; the tumour volume was 205 to 225 mm^3. On animals bearing MDA-MB-231 tumour, the treatment was started in the 4th week after xeno-transplantation with a tumour volume of 140 to 150 mm^3. […] The control groups were daily treated with physiological saline s.c. (Each treated group consisting of 7 animals).
# [2] = tested on: cytosolic progesterone receptor (cPgR); conditions: animals bearing MCF-7 xenografts
# [3] = tested on: MXT mouse mammary tumour; assay: In vivo antitumour effect on mice bearing MXT mouse mammary tumour; parameters: species or system CBA/Ca mice
# Experimental: The MXT mouse mammary carcinoma contains ER and PgR proteins; furthermore, it contains also GnRH receptors; therefore, this in vivo tumour model is suitable for studying both the direct and indirect effects. The treatment of mice bearing MXT mammary tumour was commenced on the day following transplantation. […] Table VI The animals were daily treated in s.c. route starting from the day following transplantation of MXT mouse mammary tumour. […] MI-1544: 75 µg/day/animal; MI-1892: 75 µg/day/animal.
# [4] = tested on: Ishikawa; conditions: 30 µM active substance, conjugate, treated once
# Experimental: The procedure of treatment was as follows. After trypsinization the cells, 400,000 cells of MCF-7, MDA-MB-231 human mammary carcinoma, PC3 human prostate carcinoma or Ishikawa human endometrium tumour each were passed into Petri dishes of 10 cm in diameter. Starting from the day following transfer, the cells were treated with the substances to be tested in solution prepared with the nutrient medium during the exponential growth phase. The cultures were treated with 1 to 50 µM (calculated for the total volume of the culture) or MI-1544 GnRH antagonist, MI-1892 chicken GnRH antagonist or SJ-1004 GnRH […] on the 7th day.
# [5] = tested on: PC3; assay: In vitro inhibition of cell proliferation (Example 19); assay type: cell-based, human; conditions: 30 µM active substance, conjugate, treated once
# Procedure, shortened: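 Starting from 400,000 cells per dish during exponential growth, cultures received GnRH antagonist analogues or lamprey GnRH-III at 1 to 50 µM every two days. Cell count determined on day 7.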
# [6] = tested on: human tumour cell lines; assay: Inhibition of colony formation (Example 18), cell line not given; assay type: cell-based; conditions: 50 µM of the active substance; cell line not stated
# Experimental: The investigation gives a precise information about the cell-damaging effect of the tested substance. In the case of cytostatics the cell-damaging effect is not cell-specific. […] One part of the arrested cells again go into the cycle, the other part may perish (apoptosis). […] The investigations were carried out on MCF-7 and MDA-MB-231 human mammary carcinoma cell lines, PC3 human prostate 15 carcinoma cell line and Ishikawa human endometrium carcinoma cell line. Three hundred cells were set into Petri dishes of 3.5 cm in diameter each. The treatment was carried out once, 24 hours following the explantation, then the colonies formed were counted after 9 to 12 days.
# [7] = tested on: MDA-MB-231 human mammary carcinoma cell line; assay: Inhibition of colony formation (dose-survival relation, Example 18); assay type: cell-based
# [8] = tested on: Ishikawa human endometrium carcinoma cell line; assay: as above; assay type: cell-based; conditions: for inhibition of colony formation: 30 to 50 µM
# [9] = tested on: MCF-7 human mammary carcinoma cell line; assay: as above; assay type: cell-based; conditions: treated once
# [10] = tested on: PC3 human prostate carcinoma cell line; assay: as above; assay type: cell-based; conditions: for inhibition of colony formation: 30 to 50 µM
# [11] = MCF-7 xenograft, treatment week 2
# [12] = MCF-7 xenograft, treatment week 4
# [13] = MCF-7 xenograft, treatment week 6, MI-1892 2 x 25 µg
# [14] = MXT mouse mammary tumour, Treatment weeks: 13, 1x75 µg daily s.c.
# [15] = MXT mouse mammary tumour, Treatment weeks: 20, 1x75 µg daily s.c.
substance,measurement,setting,value
"Ac-D-Trp^1,3,D-Cpa^2, {Lys[n-poly(N-vinyl pyrrolidone-co-maleic acid)-Gly-Phe-Leu-Gly-]}^5, [a-Asp(DEA)]^6, D-Ala^10-GnRH [P-GFLG-1892]",rate of tumour growth,[1]; MCF-7 xenograft,not influenced
same,decrease in the tumour volume in comparison to controls,[1]; MCF-7 xenograft,30%
same,tumour volume,[1]; MCF-7 xenograft,2.428 cm^3
same,Tumour volume as control (%),[1]; [11],70%
same,Inhibition % (tumour growth),"[1]; MCF-7 xenograft, treatment week 2, listed as 5. P-GFLG-1892",30%
same,Inhibition % (tumour growth),[1]; [12],37%
same,Tumour volume as control (%),[1]; [13],57%
same,Inhibition % (tumour growth),"[1]; MCF-7 xenograft, treatment week 6, listed as 5. P-GFLG-1892",43%
same,Volume (cm^3) of tumours,[1],4.327 ± 0.379 cm^3
same,Weight (g) of tumours,[1],4.0 ± 0.9 g
same,decrease of the uterus cPgR level,[2],23%
same,Inhibition %,[3]; [14],72%
same,Tumour volume as control (%),[3]; [14],28%
same,Inhibition %,[3]; [15],62%
same,Tumour volume as control (%),[3]; [15],38%
same,Tumour volume (cm^3),"[3]; day 9, 75 µg/day/animal s.c.",0.29 cm^3
same,Tumour volume as control (%),"[3]; day 9, 75 µg/day/animal s.c.",40%
same,Tumour volume (cm^3),"[3]; day 11, 75 µg/day/animal s.c.",0.66 cm^3
same,Tumour volume as control (%),"[3]; day 11, 75 µg/day/animal s.c.",36%
same,Tumour volume (cm^3),"[3]; day 13, 75 µg/day/animal s.c.",0.91 cm^3
same,Tumour volume as control (%),"[3]; day 13, 75 µg/day/animal s.c.",28%
same,Tumour volume (cm^3),"[3]; day 17, 75 µg/day/animal s.c.",1.86 cm^3
same,Tumour volume as control (%),"[3]; day 17, 75 µg/day/animal s.c.",36%
same,Tumour volume (cm^3),"[3]; day 18, 75 µg/day/animal s.c.",3.1 cm^3
same,Tumour volume as control (%),"[3]; day 18, 75 µg/day/animal s.c.",42%
same,Tumour volume (cm^3),"[3]; day 20, 75 µg/day/animal s.c.",3.61 cm^3
same,Tumour volume as control (%),"[3]; day 20, 75 µg/day/animal s.c.",38%
same,Tumour volume (cm^3),"[3]; day 24, 75 µg/day/animal s.c.",6.07 cm^3
same,Tumour volume as control (%),"[3]; day 24, 75 µg/day/animal s.c.",48%
same,Tumour volume (cm^3),"[3]; day 26, 75 µg/day/animal s.c.",8.91 cm^3
same,Tumour volume as control (%),"[3]; day 26, 75 µg/day/animal s.c.",64%
same,% Inhibition of cell division (proliferation),[4],91%
same,% Inhibition of cell division (proliferation),[5],51%
same,inhibition on the colony formation / survival of the cells,[6],100%
same,% Inhibition of colony formation,[7]; 10 µM,92%
same,% Inhibition of colony formation,[7]; 30 µM,100%
same,% Inhibition of colony formation,[8]; 10 µM,72%
same,% Inhibition of colony formation,[8]; 30 µM,100%
same,inhibition of colony formation,[8],100%
same,% Inhibition of colony formation,[9]; 10 µM (active substance),60%
same,% Inhibition of colony formation,[9]; 50 µM (active substance),93%
same,% Inhibition of colony formation,[10]; 10 µM,86%
same,inhibition of colony formation,[10],100%
"Ac-D-Trp^1,3,D-Cpa^2,{Lys(n-poly-(N-vinylpyrrolidone-co-maleic acid)-Gly-Phe-Leu-Gly]}^6,D-Ala^10-GnRH [P-GFLG-1544]",rate of tumour growth,[1]; MCF-7 xenograft,not influenced
same,decrease in the tumour volume in comparison to controls,[1]; MCF-7 xenograft,30%
same,tumour volume,[1]; MCF-7 xenograft,1.806 cm^3
same,tumour-free animals,"[1]; MCF-7 xenograft, 6th week",a tumour-free animal was found
same,Tumour volume as control (%),[1]; [11],70%
same,Inhibition % (tumour growth),"[1]; MCF-7 xenograft, treatment week 2, listed as 6. P-GFLG-1544",30%
same,Inhibition % (tumour growth),[1]; [12],49%
same,Tumour volume as control (%),[1]; [13],51%
same,Inhibition % (tumour growth),"[1]; MCF-7 xenograft, treatment week 6, listed as 6. P-GFLG-1544",49%
same,Volume (cm^3) of tumours,[1],3.502 ± 0.321 cm^3
same,Weight (g) of tumours,[1],4.8 ± 0.8 g
same,decrease of the uterus cPgR level,[2],54%
same,Inhibition %,[3]; [14],61%
same,Tumour volume as control (%),[3]; [14],39%
same,Inhibition %,[3]; [15],49%
same,Tumour volume as control (%),[3]; [15],51%
same,Tumour volume (cm^3),"[3]; day 9, 75 µg/day/animal s.c.",0.38 cm^3
same,Tumour volume as control (%),"[3]; day 9, 75 µg/day/animal s.c.",55%
same,Tumour volume (cm^3),"[3]; day 11, 75 µg/day/animal s.c.",0.74 cm^3
same,Tumour volume as control (%),"[3]; day 11, 75 µg/day/animal s.c.",41%
same,Tumour volume (cm^3),"[3]; day 13, 75 µg/day/animal s.c.",1.26 cm^3
same,Tumour volume as control (%),"[3]; day 13, 75 µg/day/animal s.c.",39%
same,Tumour volume (cm^3),"[3]; day 17, 75 µg/day/animal s.c.",2.43 cm^3
same,Tumour volume as control (%),"[3]; day 17, 75 µg/day/animal s.c.",46%
same,Tumour volume (cm^3),"[3]; day 18, 75 µg/day/animal s.c.",3.91 cm^3
same,Tumour volume as control (%),"[3]; day 18, 75 µg/day/animal s.c.",52%
same,Tumour volume (cm^3),"[3]; day 20, 75 µg/day/animal s.c.",4.74 cm^3
same,Tumour volume as control (%),"[3]; day 20, 75 µg/day/animal s.c.",51%
same,Tumour volume (cm^3),"[3]; day 24, 75 µg/day/animal s.c.",7.34 cm^3
same,Tumour volume as control (%),"[3]; day 24, 75 µg/day/animal s.c.",58%
same,Tumour volume (cm^3),"[3]; day 26, 75 µg/day/animal s.c.",9.03 cm^3
same,Tumour volume as control (%),"[3]; day 26, 75 µg/day/animal s.c.",65%
same,% Inhibition of cell division (proliferation),[4],95%
same,% Inhibition of cell division (proliferation),[5],68.5%
same,inhibition on the colony formation / survival of the cells,[6],100%
same,% Inhibition of colony formation,[7]; 10 µM,80%
same,% Inhibition of colony formation,[7]; 50 µM,100%
same,% Inhibition of colony formation,[8]; 50 µM,100%
same,inhibition of colony formation,[8],100%
same,% Inhibition of colony formation,[9]; 10 µM (active substance),85%
same,% Inhibition of colony formation,[9]; 50 µM (active substance),100%
same,% Inhibition of colony formation,[10]; 10 µM,100%
same,% Inhibition of colony formation,[10]; 50 µM,100%
same,inhibition of colony formation,[10],100%
